From ChEMBL document CHEMBL1201862, “PubChem BioAssay data set” (2004) come the findings set out here.

The structures appear in SMILES notation.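 Following 48 hours of exposure in 96-well plates, responses at five concentrations were used to interpolate endpoints linearly. GI50 marks 50% less growth.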 The source made the active and inactive calls. Cut-off read from the data, not from the text of the source: active = GI50 up to about 1.1 µM and inactive = higher. Bounds are passed on as bounds.

Assay in all cases: NCI tumour cell line growth inhibition, 48 h
The test system of experiment [1] is SN12C.
For experiment [2], the system named is A549.
Experiment [3] deals with SK-MEL-5.
Experiment [4] deals with SF-268.
In experiment [5] the test system is MOLT-4.
For experiment [6], the system named is NCI/ADR-RES.
The subject of experiment [7] is NCI-H522.
Experiment [8] deals with RPMI-8226.
Experiment [9] deals with HOP-92.
Experiment [10] has as its system COLO 205.
For experiment [11], the system named is SK-OV-3.
The test system of experiment [12] is OVCAR-4.
The subject of experiment [13] is EKVX.
The test system of experiment [14] is OVCAR-5.
The subject of experiment [15] is RXF 393.
The subject of experiment [16] is 786-0.
In experiment [17] the test system is SR.
The subject of experiment [18] is TK-10.
Experiment [19] relates to KM12.
The test system of experiment [20] is BT-549.

For the compound `Cn1c(N/N=C/c2ccccc2)nc(-c2ccc3c(c2)OCO3)c(C#N)c1=O`, the GI50 in [1] was 65.2 µM (inactive); in experiment [2], 45.4 µM (inactive); in experiment [3] it was 69 µM (inactive); in experiment [4], > 100 µM (inactive); in experiment [5], 48.4 µM (inactive); in experiment [6], > 100 µM (inactive). In addition, the GI50 is > 100 µM (inactive) in [7]; 47.1 µM (inactive) in [8]; 2.85 µM (inactive) in experiment [9]; 58.3 µM (inactive) in experiment [10]; > 100 µM (inactive) in experiment [11]; 61.7 µM (inactive) in experiment [12]. Further, the GI50 in [13] was 70.6 µM (inactive); in experiment [14], > 100 µM (inactive); in [15], 81.8 µM (inactive); in [16], > 100 µM (inactive); in [17], 25.5 µM (inactive); in experiment [18], 69.7 µM (inactive). For the same compound, in [19], the GI50 was 88.1 µM (inactive).

Consider `COc1cc(OC)c(/C=C\c2ccnc3ccccc23)c(OC)c1`, for which the GI50 in [1] is 4.71 µM (inactive); in experiment [2] it was 4.13 µM (inactive); in [3] it was 1.7 µM (inactive); in [4] it was 5.97 µM (inactive); in [5], 3.56 µM (inactive); in [6], 2.07 µM (inactive). Further, the GI50 in [7] was 3.76 µM (inactive); in experiment [8], 3.06 µM (inactive); in [9] it was 3.51 µM (inactive); in [10], 1.98 µM (inactive); in experiment [11], 6.44 µM (inactive); in [12], 0.349 µM (active). Also, the GI50 in [13] is 4.65 µM (inactive); in [14] it was 6.05 µM (inactive); in experiment [15] it was 2.39 µM (inactive); in experiment [16], 5.53 µM (inactive); in experiment [17], 0.689 µM (active); in experiment [18], 4.61 µM (inactive). Moreover, the GI50 in experiment [19] is 0.736 µM (active).

Take `C[C@@H]1C[C@H]2[C@@H]3CCC4=CC(=O)C=C[C@]4(C)[C@@]3(Cl)[C@@H](Cl)C[C@]2(C)[C@@]1(O)C(=O)COP(=O)(O)O`: the GI50 was 17.6 µM (inactive) in experiment [1]; > 100 µM (inactive) in [2]; > 100 µM (inactive) in experiment [3]; 52.1 µM (inactive) in experiment [20]; > 100 µM (inactive) in experiment [4]; 22 µM (inactive) in experiment [5]. Also, the GI50 in experiment [7] was > 100 µM (inactive); in [8], 0.0128 µM (active); in experiment [9] it was > 100 µM (inactive); in experiment [10], > 100 µM (inactive); in [11], > 100 µM (inactive); in [12], > 100 µM (inactive). Also, the GI50 in [13] was > 100 µM (inactive); in experiment [14], > 100 µM (inactive); in [15], > 100 µM (inactive); in experiment [16], 49.3 µM (inactive); in [17] it was 11.4 µM (inactive); in [18], > 100 µM (inactive). In [19], the GI50 was > 100 µM (inactive).

As to `NC1=CN(Cc2ccccc2)C2=N/C(=C\c3ccco3)C(=O)N12`, the GI50 in [1], in [2], in experiment [3], in [20], in experiment [4] and in [5] was > 100 µM (inactive) each time. In addition, the GI50 in experiment [6], in experiment [7], in experiment [9], in experiment [10], in [11] and in experiment [12] was > 100 µM (inactive) each time. The GI50 in experiment [13], in experiment [14], in experiment [15], in experiment [16], in experiment [18] and in experiment [19] was > 100 µM (inactive) in each case.

As to `Cc1ccc(-c2cc(-c3ccc(Cl)cc3)nc(/N=C3\C(=O)N(CN(C)C)c4ccccc43)n2)cc1`, the GI50 in [1] was > 100 µM (inactive); in [2] it was 89.1 µM (inactive); in experiment [3], 48.4 µM (inactive); in experiment [20] it was 78.5 µM (inactive); in experiment [4], 89.9 µM (inactive); in [5], 11.5 µM (inactive). The GI50 in experiment [6] is 43.5 µM (inactive); in [7] it was 20.8 µM (inactive); in experiment [9], 98.9 µM (inactive); in experiment [10], 77.8 µM (inactive); in experiment [11], > 100 µM (inactive); in experiment [12], 41.2 µM (inactive). The GI50 in [13] was > 100 µM (inactive); in experiment [14], > 100 µM (inactive); in experiment [15], 22.3 µM (inactive); in experiment [16] it was 54.6 µM (inactive); in experiment [18], 85.3 µM (inactive); in [19] it was 64.6 µM (inactive).

On to `CC1CNC(c2ccc(CN3CCC(CCCC4CCN(Cc5ccc(C6=NC(C)CN6)cc5)CC4)CC3)cc2)=N1` (stereo unspecified), for which the GI50 was 84.7 µM (inactive) in experiment [1]; 66.1 µM (inactive) in [2]; > 100 µM (inactive) in experiment [3]; > 100 µM (inactive) in experiment [20]; > 100 µM (inactive) in [4]; 19.4 µM (inactive) in [5]. Besides, the GI50 in experiment [6] is > 100 µM (inactive); in [7] it was 23.5 µM (inactive); in experiment [9] it was 26 µM (inactive); in [10] it was 17.6 µM (inactive); in experiment [11] it was 25.5 µM (inactive); in experiment [12], 19.7 µM (inactive). The GI50 in experiment [13] is 32.2 µM (inactive); in experiment [14], 25.3 µM (inactive); in [15], 27.4 µM (inactive); in experiment [16] it was > 100 µM (inactive); in experiment [18], 75.3 µM (inactive); in experiment [19], 16.9 µM (inactive).

Turning to `C#C[C@]1(O)CC[C@H]2[C@@H]3CCC4=C/C(=N/CCOC(=O)c5cccc6cc7ccccc7nc56)CC[C@@H]4[C@H]3CC[C@@]21C`, the GI50 was 49.1 µM (inactive) in experiment [1]; 28.4 µM (inactive) in [2]; 23.7 µM (inactive) in experiment [3]; 24.2 µM (inactive) in [20]; 20.6 µM (inactive) in experiment [4]; > 100 µM (inactive) in experiment [5]. Besides, the GI50 in [6] was 26 µM (inactive); in experiment [7], 17.9 µM (inactive); in [9], 20.7 µM (inactive); in experiment [10] it was 90.6 µM (inactive); in [11], 64.4 µM (inactive); in experiment [12], 26 µM (inactive). The GI50 was 34.8 µM (inactive) in experiment [13]; 40.5 µM (inactive) in [14]; 4.06 µM (inactive) in [15]; 34.5 µM (inactive) in experiment [16]; 31.5 µM (inactive) in [18]; 20.6 µM (inactive) in experiment [19].

`CCN(CCCl)c1ccc(NC(=O)c2cc(C(=O)NCCN(C)C)cc(C(=O)Nc3ccc(N(CC)CCCl)cc3)c2)cc1`: the GI50 in experiment [1] was 2.08 µM (inactive); in [2], 6.24 µM (inactive); in experiment [3], 12.3 µM (inactive); in experiment [4], 0.891 µM (active); in experiment [5] it was 0.151 µM (active); in [6], > 100 µM (inactive). Further, the GI50 in experiment [7] is 2.3 µM (inactive); in experiment [8], 3.46 µM (inactive); in [9] it was 3.74 µM (inactive); in experiment [11], 4.26 µM (inactive); in experiment [12] it was 9.38 µM (inactive); in experiment [14], 16.5 µM (inactive). In addition, the GI50 is 5.41 µM (inactive) in [15]; 0.942 µM (active) in experiment [16]; 0.659 µM (active) in experiment [17]; 16.7 µM (inactive) in [18]; 8.65 µM (inactive) in experiment [19].

Take `COC(=O)C1(C(=O)OC)Cc2ccc(C)cc2C2=C1C(=O)c1ccccc1C2=O`: the GI50 in experiment [1] is 19.8 µM (inactive); in experiment [2], 29.9 µM (inactive); in experiment [3] it was 15 µM (inactive); in [4], 16 µM (inactive); in [5] it was 8.51 µM (inactive); in [6], 12.6 µM (inactive). Besides, the GI50 in [7] is 15.1 µM (inactive); in [9], 20 µM (inactive); in experiment [12], 11.5 µM (inactive); in experiment [13], 14.6 µM (inactive); in experiment [14], 21 µM (inactive); in experiment [16], 26.4 µM (inactive). The GI50 in [17] is 24.2 µM (inactive); in experiment [18], 57 µM (inactive); in experiment [19] it was 16.6 µM (inactive).

Consider `O=C(N/N=C(COc1ccccc1)\N=C\c1cccnc1)c1ccncc1`, for which the GI50 in [1], in experiment [2], in [20], in [4], in experiment [5] and in [6] was > 100 µM (inactive) in each case. In addition, the GI50 in [7], in [8], in experiment [10], in [11], in experiment [12] and in [13] was > 100 µM (inactive) in each case. For the same compound, the GI50 in experiment [14], in experiment [15], in experiment [16], in [18] and in experiment [19] was > 100 µM (inactive) throughout.

As for `c1ccc(-c2cn3nc(N4CCOCC4)sc3n2)cc1`, the GI50 in experiment [1] is 8.49 µM (inactive); in [2] it was > 100 µM (inactive); in [3] it was > 100 µM (inactive); in [20] it was > 100 µM (inactive); in experiment [4] it was > 100 µM (inactive); in experiment [5], > 100 µM (inactive). The GI50 in experiment [6] was > 100 µM (inactive); in experiment [7], > 100 µM (inactive); in experiment [8], > 100 µM (inactive); in experiment [10], > 100 µM (inactive); in [11] it was > 100 µM (inactive); in experiment [12], 34 µM (inactive). Moreover, the GI50 in experiment [13] was > 100 µM (inactive); in [14], > 100 µM (inactive); in [15], 83.6 µM (inactive); in [16] it was 37.4 µM (inactive); in experiment [18], > 100 µM (inactive); in [19], > 100 µM (inactive).
